The target in test [1] is T1, ChT-L activity of 26S proteasomes in intact MCF-7 cells (Homo sapiens, UniProt P28074).
T1 construct: endogenous in cells; host or cells: MCF7 cells (treated intact, then lysed)
T1 sequence (P28074 60-263): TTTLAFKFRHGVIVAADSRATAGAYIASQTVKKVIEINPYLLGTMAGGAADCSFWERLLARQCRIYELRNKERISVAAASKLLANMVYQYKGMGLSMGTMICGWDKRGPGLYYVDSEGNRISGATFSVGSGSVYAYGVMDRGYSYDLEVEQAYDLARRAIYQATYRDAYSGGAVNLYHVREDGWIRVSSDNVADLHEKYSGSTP
Put plainly: Cell infiltration of PIs: proteasome inhibition in intact MCF7 cells. The settings on record: intact MCF-7 cells treated, washed, lysed. Type of test: cell-based. The procedure:
100 μL MCF7 cells at a concentration of 500,000 cells/mL were added to a 96 well microtiter plate and incubated overnight at 37° C. and 5% CO2 to allow cells to adhere at 100% confluency. The cells were treated and then incubated for at 37° C. and 5% CO2 for 1 hour as a standard time to allow for drug infiltration. […] The plate was rocked on ice for 1 hr and then 90 μL of cell lysate was transferred to a black 96 well microtiter plate. 10 μL of lysis buffer was added to the top of all wells containing treated cells and one set of control wells. 10 μL of 1 mM of compound 8 was added to the second set of control wells as a positive control for proteasome inhibition. The plate was then incubated at 37° C. for 15 minutes to allow for control drug binding. Chymotrypsin-like activity was then measured by adding 10 μL of 100 μM Suc-LLVY-AMC in lysis buffer to each well and then incubating for 1 h at 37° C. […] Standard deviation for cell infiltration was calculated by propagating the error from the two IC50 values.
The difference between proteasome inhibition within intact versus lysed cells was evaluated as a representative measure of PIs ability to infiltrate cells and access intracellular proteasomes. […] Assays were performed in biological triplicate, and the data points are reported with the corresponding standard deviations. […]

Test [2] deals with ubiquitinated proteins in MCF7 cells. Briefly: Western blot of ubiquitinated proteins. The format is cell-based, human. The procedure:
The cells were incubated for 9.5 hrs at 37° C. and 5% CO2. After washing with PBS twice, cells were scraped, pelleted and lysed with CytoBuster™ Protein Extraction Reagent \ containing 10 μM compound 8, 10 μM Na3VO4, 0.017 mg/mL Aprotinin, 1 mM PMSF, and 1% Protease Inhibitor Cocktail. Thereafter 30 μg of protein in sample buffer (50 mM Tris-HCl, 2% SDS, 10% Glycerol, 1% β-mercaptoethanol, 12.5 mM EDTA, 0.02% Bromophenol Blue, pH 6.8) that had been boiled at 90° C. for 5 min, was electrophoresed using 6/8% SDS-PAGE, and the protein transferred to a […] PVDF membrane using a BioRad Trans-Blot® SD at 15 V for 17 minutes. The membrane was blocked with 1× casein buffer (Diluted 1:10 in water from casein blocking buffer 10×), and probed with either the polyclonal rabbit anti β-Actin (1:500) or the polyclonal rabbit anti-ubiquitin antibody (1:300), and stained with goat anti-rabbit IgG (H+L) HRP conjugate (1:3000) secondary antibodies. Antibody-recognized bands were visualized by a standard horseradish peroxidase chemiluminescent assay with an ECL kit.

The target of test [3] is T2, trypsin-like activity of the 26S proteasome (Homo sapiens, UniProt Q99436).
T2 construct: endogenous in cells; host or cells: Jurkat (ATCC TIB-152, E6-1 clone) cell lysate
T2 sequence (Q99436 44-277): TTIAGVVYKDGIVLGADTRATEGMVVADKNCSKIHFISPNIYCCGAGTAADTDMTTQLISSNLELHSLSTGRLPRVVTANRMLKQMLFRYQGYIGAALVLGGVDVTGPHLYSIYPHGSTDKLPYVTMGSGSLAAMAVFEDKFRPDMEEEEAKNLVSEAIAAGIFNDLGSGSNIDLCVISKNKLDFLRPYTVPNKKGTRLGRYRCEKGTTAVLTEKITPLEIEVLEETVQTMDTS
Put plainly: Proteasome assay, trypsin-like (T-L) activity, SUC-RLR-AMC, Jurkat cell lysate. Type of test: biochemical. The following applies: Table 2, P1 analogues; ± S.D.; read-out: Proteasome Inhibition T-L-like IC50. On the procedure:
(§1) The lysate was stored at −80° C. until the sample was used for the proteasome assay.
(§2) The compounds were diluted with lysis buffer; 10 μL of the compound-containing solution was added to the test wells at ten times the final concentration. […] The results are reported as the average of at least 3 technical replicates of IC50 values for proteasome inhibition.

For test [4], the target named is T3, chymotrypsin-like activity of the 26S proteasome (Homo sapiens, UniProt P28074).
T3 construct: endogenous in cells; host or cells: Jurkat (ATCC TIB-152, E6-1 clone) cell lysate
T3 sequence (P28074 60-263): T1 sequence (P28074 60-263)
Briefly: Proteasome assay, chymotrypsin-like (ChT-L) activity, Suc-LLVY-AMC, Jurkat cell lysate. The format is biochemical. On the procedure: as §1, §2

A further test relates to MDA-MB-231 cells. Put plainly: MTT assay cytotoxicity MDA-MB-231. The following applies: Homo sapiens. Background: Tetrazolium dyes change colour on reduction, which living cells bring about.
A further test relates to MCF7 cells. Put plainly: MTT assay cytotoxicity MCF7. The following applies: Homo sapiens.
For another test, the system named is RPMI 8226 cells. Put plainly: MTT assay cytotoxicity RPMI 8226. The following applies: Homo sapiens.
The next test concerns Jurkat cells. Briefly: Cell cycle assay (flow cytometry). The format is cell-based, human. On the procedure:
Vybrant® DyeCycle™ Orange Stain was used for the cell cycle assay. The amount of fluorescence of DNA was used as a relative measure of a cell's stage in the cell cycle. 500,000 Jurkat cells were added to wells on a 24 well microtiter plate in 1 mL of supplemented RPMI media. The cells were then treated with Compound 1 (TABLE 2). Using the cells treated for 12 and 24 hours, stained DNA fluorescence was measured via flow cytometry. The cells were taken from each well, pelleted briefly, aspirated, resuspended in 300 μL of 2 μL/mL Vybrant® DyeCycle™ Orange Stain, incubated at 37° C. for 15 minutes, and analyzed by flow cytometry. Selecting whole cells based on forward and side scatter, stained DNA fluorescence was excited at 488 nm and measured at an emission wavelength of 585 nm, using amount of fluorescence as a means of distinguishing between populations of cells. Populations were identified as G1 for the peak associated with the lowest amount of fluorescence, S phase for increased fluorescence appearing as a shoulder off of the G1 peak, and G2/M for approximately 2 times the fluorescence as the G1 peak. Measurements were taken in biological triplicate and confirmed in technical triplicate.

Test [5] has as its target T4, yeast proteasome yβ2 subunit (Saccharomyces cerevisiae, UniProt P25043+P25451).
T4 construct: measured using 8 μg/mL of purified yCP or iCP
Put plainly: Subunit selectivity, purified yeast proteasome yβ2. Type of test: biochemical. On the procedure: as §2
Values and standard deviations were calculated from an assay performed in biological triplicate.

SMILES strings stand for the structures. Like-named read-outs stand apart in the source and are kept apart here.

Protocol for RPMI 8226 cells: The cells were incubated at 37° C. in a humidified atmosphere with 5% CO2.
100 μL of cells were added to each well of a 96 well microtiter plate at a concentration of 4×10^4 cells/mL and incubated overnight to allow proper adhesion. (RPMI 8226 cells were plated at 4×10^5 cells/mL). The cells were treated with the panel of test compounds at a series of concentrations, along with vehicle control DMSO and untreated cells as controls. After 48 h incubation, 20 μL of MTT reagent (3-(4,5-dimethylthiazol-2-yl)-2,5-diphenyltetrazolium bromide) in PBS (5 mg/mL) was added to each well of the plates. The plate was incubated for 2 h at 37° C. For adherent cell lines, the media was removed from each well of the plate and the resulting formazan crystals dissolved in 100 μL of DMSO. For RPMI 8226 cells, 200 ul of DMF/SDS mix (50% DMF. 10% w/v SDS pH<4) was used to solubilize the formazan crystals. Optical density (OD) at 490 nm was measured using a microplate reader. Cells treated with 1 μM phenyl arsine oxide (PAO) served as a positive cell-killing control. Technical replicates of these assays were performed in biological quadruplicate, and the three best values were used for analysis in order to eliminate outliers. Data presented are the average IC50 value calculated from at least 3 technical replicates with the corresponding standard deviation.

For the compound `CC[C@H](C)[C@@H]1C(=O)O[C@H]1C(=O)N[C@H](C(=O)N[C@H](C(=O)OCc1ccccc1)C(C)C)C(C)C` [Compound 8, Benzyl ((2R,3S)-3-((S)-sec-butyl)-4-oxooxetane-2-carbonyl)-L-valyl-L-valinate], the “times more active than compound 1, proteasome inhibition in intact cells” value in [1] is “approximately 10 times”. Further, the “accumulation of ubiquitinated proteins” value in test [2] is on record as “accumulation of ubiquitinated proteins”. Also, the IC50 (commonly the concentration that inhibits the measured activity by half) in [3] is 1.52 ± 0.788 µM; in [4], 0.0071 ± 0.0028 µM; in [4] (Table 5, ± S.D., read-out: Proteasome Inhib. ChT-L IC50), 0.007 ± 0.000311 µM; in the test on MDA-MB-231 cells (MDA-MB-231, 48 h, read-out: Cytotoxicity MDA-MB-231 IC50), 0.359 ± 0.072 µM; in the test with MDA-MB-231 cells (MDA-MB-231, read-out: Cytotoxicity MDA-MB-231 IC50), 0.38 ± 0.0188 µM; with MCF7 cells (MCF7, 48 h, read-out: Cytotoxicity MCF7 IC50), 1.41 ± 0.687 µM. Besides, the 50% inhibitory concentration (IC50) is 1.85 ± 0.261 µM in the test with MCF7 cells (MCF7, read-out: Cytotoxicity MCF7 IC50); 0.201 ± 0.082 µM in the test on RPMI 8226 cells (RPMI-8226, 48 h, read-out: Cytotoxicity RPMI 8226 IC50); 0.192 ± 0.0323 µM in the test on RPMI 8226 cells (RPMI-8226, read-out: Cytotoxicity RPMI 8226 IC50); 26.1 ± 2.38 µM in test [5]. Besides, the cell cycle arrest entry with Jurkat cells is listed as “cell cycle arrest in the G2/M phase”.

The values are drawn from patent publication US11396497B2, “Proteasome inhibitors” (New Mexico Tech University Research Park Corporation, priority 2018, dated 2022).
